Measured values taken from the supplement of paper PMC10307832.

Assays:
Experiment in all cases: relative viability (nuclei count vs DMSO), 5 days (fraction); higher = more cells survive
Elesclomol + Pemetrexed = compound: CN(NC(=O)CC(=O)NN(C)C(=S)c1ccccc1)C(=S)c1ccccc1 [Elesclomol] + Nc1nc2[nH]cc(CCc3ccc(C(=O)N[C@@H](CCC(=O)O)C(=O)O)cc3)c2c(=O)[nH]1 [Pemetrexed] (partner 0.2 µM)
Procedure, shortened: (§1)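 One day after seeding in 1536-well plates, lung cancer cell lines were dosed by pin tool. Dosing was either single-drug or a fixed anchor-drug dose plus five library-drug doses (not always all listed) in √10 steps. After 5 days, nuclei were stained in one fix-and-stain step and counted on 4× images, and relative viability is the nuclei count of treated wells over that of vehicle wells, given as the median of duplicate plates.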

Elesclomol + Palbociclib = compound: CN(NC(=O)CC(=O)NN(C)C(=S)c1ccccc1)C(=S)c1ccccc1 [Elesclomol] + CC(=O)c1c(C)c2cnc(Nc3ccc(N4CCNCC4)cn3)nc2n(C2CCCC2)c1=O [Palbociclib] (partner 0.5 µM)
Procedure, shortened: as §1

Elesclomol + Bortezomib = compound: CN(NC(=O)CC(=O)NN(C)C(=S)c1ccccc1)C(=S)c1ccccc1 [Elesclomol] + CC(C)C[C@H](NC(=O)[C@H](Cc1ccccc1)NC(=O)c1cnccn1)B(O)O [Bortezomib] (partner 0.002 µM)
Procedure, shortened: as §1

Elesclomol + Decitabine = compound: CN(NC(=O)CC(=O)NN(C)C(=S)c1ccccc1)C(=S)c1ccccc1 [Elesclomol] + Nc1ncn([C@H]2C[C@H](O)[C@@H](CO)O2)c(=O)n1 [Decitabine] (partner 2 µM)
Procedure, shortened: as §1

Elesclomol + Foretinib = compound: CN(NC(=O)CC(=O)NN(C)C(=S)c1ccccc1)C(=S)c1ccccc1 [Elesclomol] + COc1cc2c(Oc3ccc(NC(=O)C4(C(=O)Nc5ccc(F)cc5)CC4)cc3F)ccnc2cc1OCCCN1CCOCC1 [Foretinib] (partner 0.25 µM)
Procedure, shortened: as §1

| Cell Line | relative viability (Elesclomol + Pemetrexed; first compound 0.003162 µM) | relative viability (Elesclomol + Pemetrexed; first compound 0.01 µM) | relative viability (Elesclomol + Pemetrexed; first compound 0.03162 µM) | relative viability (Elesclomol + Pemetrexed; first compound 0.1 µM) | relative viability (Elesclomol + Palbociclib; first compound 0.003162 µM) | relative viability (Elesclomol + Palbociclib; first compound 0.01 µM) | relative viability (Elesclomol + Palbociclib; first compound 0.03162 µM) | relative viability (Elesclomol + Palbociclib; first compound 0.1 µM) | relative viability (Elesclomol + Bortezomib; first compound 0.003162 µM) | relative viability (Elesclomol + Bortezomib; first compound 0.01 µM) | relative viability (Elesclomol + Bortezomib; first compound 0.03162 µM) | relative viability (Elesclomol + Bortezomib; first compound 0.1 µM) | relative viability (Elesclomol + Decitabine; first compound 0.003162 µM) | relative viability (Elesclomol + Decitabine; first compound 0.01 µM) | relative viability (Elesclomol + Decitabine; first compound 0.03162 µM) | relative viability (Elesclomol + Decitabine; first compound 0.1 µM) | relative viability (Elesclomol + Foretinib; first compound 0.003162 µM) | relative viability (Elesclomol + Foretinib; first compound 0.01 µM) | relative viability (Elesclomol + Foretinib; first compound 0.03162 µM) | relative viability (Elesclomol + Foretinib; first compound 0.1 µM) |
| --- | --- | --- | --- | --- | --- | --- | --- | --- | --- | --- | --- | --- | --- | --- | --- | --- | --- | --- | --- | --- |
| NCI-H2087 | 0.588 | 0.685 | 0.609 | 0.108 | 0.222 | 0.188 | 0.176 | 0.0806 | 0.896 | 0.49 | 0.502 | 0.495 | 0.379 | 0.226 | 0.175 | 0.082 | 0.936 | 0.767 | 0.577 | 0.299 |
| NCI-H2126 | 0.766 | 0.59 | 0.686 | 0.542 | 0.341 | 0.357 | 0.352 | 0.309 | 1.11 | 1.08 | 1.11 | 1.17 | 0.538 | 0.616 | 0.558 | 0.593 | 1.19 | 0.943 | 0.435 | 0.201 |
| NCI-H2347 | 0.401 | 0.372 | 0.411 | 0.441 | 0.401 | 0.441 | 0.328 | 0.321 | 0.929 | 0.765 | 0.891 | 0.544 | 0.662 | 0.56 | 0.534 | 0.475 | 1.06 | 0.701 | 0.482 | 0.942 |
| NCI-H2405 | 1.03 | 0.707 | 0.323 | 0.297 | 0.507 | 0.395 | 0.303 | 0.28 | 0.959 | 0.842 | 0.515 | 0.458 | 0.775 | 0.643 | 0.336 | 0.324 | 1.04 | 0.663 | 0.336 | 0.292 |
| NCI-H3122 | 0.177 | 0.229 | 0.194 | 0.128 | 0.161 | 0.205 | 0.167 | 0.105 | 1.05 | 0.994 | 0.957 | 0.409 | 0.415 | 0.455 | 0.397 | 0.0861 | 1.01 | 0.961 | 0.839 | 0.135 |
| PC-3 [JPC-3] | 1.04 | 0.714 | 0.518 | 0.499 | 0.609 | 0.495 | 0.456 | 0.411 | 0.82 | 0.73 | 0.764 | 0.755 | 0.877 | 0.656 | 0.487 | 0.524 | 0.996 | 1.02 | 1.17 | 0.559 |
| PC-14 | 0.14 | 0.0457 | 0.0214 | 0.0198 | 0.317 | 0.0274 | 0.02 | 0.0209 | 0.862 | 0.244 | 0.0404 | 0.0297 | 0.126 | 0.0523 | 0.0385 | 0.0283 | 1.02 | 0.827 | 0.484 | 0.0715 |
| RERF-LC-KJ | 0.412 | 0.369 | 0.332 | 0.268 | 0.911 | 0.714 | 0.581 | 0.288 | 0.943 | 0.536 | 0.322 | 0.276 | 0.414 | 0.288 | 0.297 | 0.222 | 0.858 | 0.812 | 0.522 | 0.323 |
| SK-LU-1 | 1.01 | 0.889 | 0.625 | 0.521 | 0.35 | 0.305 | 0.344 | 0.388 | 1.45 | 0.424 | 0.38 | 0.116 | 0.679 | 0.575 | 0.481 | 0.468 | 0.803 | 0.668 | 0.459 | 0.193 |
| SW 1573 | 0.464 | 0.158 | 0.115 | 0.0205 | 0.269 | 0.104 | 0.0985 | 0.0326 | 1.02 | 0.174 | 0.105 | 0.103 | 0.173 | 0.111 | 0.0529 | 0.0067 | 0.769 | 0.65 | 0.165 | 0.0891 |
| UMC-11 | 0.806 | 0.655 | 0.478 | 0.336 | 0.321 | 0.275 | 0.29 | 0.249 | 0.802 | 0.495 | 0.491 | 0.352 | 0.674 | 0.582 | 0.276 | 0.359 | 1.01 | 0.91 | 0.789 | 0.482 |
